Laboratory results taken from patent publication US20100311714A1, “1H-IMIDAZO[4,5-c]QUINOLINONE COMPOUNDS” (priority 2009, published 2010).
pIC50: −log10 of the molar value. Where two headings read alike, the source gives them in different places.

How the values were obtained:
mTOR = molecular target: T1, mTOR (Homo sapiens, UniProt P42345); assay: Biochemical assay for m-TOR by TR-FRET
T1 construct: purchased Invitrogen Corporation (Carlsbad/Calif., USA) PV4753
Protocol: Biochemical Assay for m-TOR by TR-FRET.
Assay components are purchased from Invitrogen Corporation (Carlsbad/Calif., USA): GFP-4EBP1 (Cat. No. PV4759), Tb3+-α-p4EBP1 [pThr46] Antibody (Cat. No. PV4757), proprietary TR-FRET dilution buffer (Cat. No. PV3574), mTOR protein (Cat. No. PV4753).
50 nL of compound dilutions (final concentration of 10, 3.0, 1.0, 0.3, 0.1, 0.03, 0.01 and 0.003 μM) are dispensed onto black 384-well low volume non-binding polystyrene (Cat. No. NBS#3676, Corning, Lowell/Mass., USA). Then 5 μL of ATP (8 μM final concentration) and GFP-4EBP1 (400 nM final concentration) with 5 μL mTOR proteins (0.5 nM final concentration) are incubated at rt. The standard reaction buffer for the TR-FRET mTOR assay contained 50 mM HEPES pH 7.5, 10 mM MnCl2, 50 mM NaCl, 1 mM EGTA, 1 mM DTT. Reactions were stopped with 10 μL of a mixture of EDTA containing the Tb3+-α-p4EBP1[pT46] detection Ab (0.5 nM) in TR-FRET dilution buffer (proprietary to IVG). Plates are read 15 mins later in a Synergy2 reader using an integration time of 0.2 seconds and a delay of 0.1 seconds. Control for the 100% inhibition of the kinase reaction is performed by replacing the mTOR kinase by the standard reaction buffer. The control for the 0% inhibition is given by the solvent vehicle of the compounds (90% DMSO in H2O). A standard compound is used as a reference compound and included in all assay plates in the form of 16 dilution points in duplicate.

[1] = system: PKB Ser473 phosphorylation in Rat1-myr-HA-p110 delta cells; assay: Reverse protein array, PKB Ser473 phosphorylation in Rat1-myr-HA-p110 delta cells; assay type: cell-based; settings: Rattus norvegicus, 0.5 h, 30 minutes compound incubation, read-out: p-PKB/IC50_delta

T1 sequence (P42345 1360-2549 limits assumed): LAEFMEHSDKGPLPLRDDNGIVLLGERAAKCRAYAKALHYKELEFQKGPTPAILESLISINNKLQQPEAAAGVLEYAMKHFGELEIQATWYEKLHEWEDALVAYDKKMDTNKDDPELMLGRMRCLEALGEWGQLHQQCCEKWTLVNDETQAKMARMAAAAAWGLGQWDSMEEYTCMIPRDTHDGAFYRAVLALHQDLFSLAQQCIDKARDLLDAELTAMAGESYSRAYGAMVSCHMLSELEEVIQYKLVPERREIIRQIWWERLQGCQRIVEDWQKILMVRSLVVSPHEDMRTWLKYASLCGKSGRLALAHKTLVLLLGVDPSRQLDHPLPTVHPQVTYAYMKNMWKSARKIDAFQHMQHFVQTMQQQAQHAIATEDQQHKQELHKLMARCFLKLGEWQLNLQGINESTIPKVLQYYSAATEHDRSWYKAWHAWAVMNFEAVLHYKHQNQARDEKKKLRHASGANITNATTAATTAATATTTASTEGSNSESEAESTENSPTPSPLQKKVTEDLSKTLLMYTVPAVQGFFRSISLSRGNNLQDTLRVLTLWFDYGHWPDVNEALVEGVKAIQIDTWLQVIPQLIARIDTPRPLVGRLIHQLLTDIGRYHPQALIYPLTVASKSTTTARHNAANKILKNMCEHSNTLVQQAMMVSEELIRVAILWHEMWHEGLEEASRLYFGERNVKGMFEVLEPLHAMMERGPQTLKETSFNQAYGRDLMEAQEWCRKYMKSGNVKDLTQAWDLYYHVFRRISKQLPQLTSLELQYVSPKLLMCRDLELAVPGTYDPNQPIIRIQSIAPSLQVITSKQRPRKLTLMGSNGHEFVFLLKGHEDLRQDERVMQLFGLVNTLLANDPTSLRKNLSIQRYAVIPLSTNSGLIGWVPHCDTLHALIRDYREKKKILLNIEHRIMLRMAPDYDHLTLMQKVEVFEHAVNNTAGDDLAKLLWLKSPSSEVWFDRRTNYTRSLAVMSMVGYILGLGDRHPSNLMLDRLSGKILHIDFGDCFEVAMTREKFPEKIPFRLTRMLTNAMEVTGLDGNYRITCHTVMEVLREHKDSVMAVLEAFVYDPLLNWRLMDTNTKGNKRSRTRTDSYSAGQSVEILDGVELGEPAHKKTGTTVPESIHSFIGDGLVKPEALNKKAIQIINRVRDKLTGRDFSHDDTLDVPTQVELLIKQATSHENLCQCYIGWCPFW

| pIC50 (mTOR; read-out: EPK_mTOR/IC50) | pIC50 [1] | pIC50 (mTOR; read-out: mTOR/IC50) | SMILES |
| --- | --- | --- | --- |
| 7.96 | 6.92 |  | COc1ncc(-c2ccc3ncc4c(c3c2)n(-c2ccc(N3CC(O)C3)nc2C)c(=O)n4C)c(OC)n1 [Example 29.6, 8-(2,4-Dimethoxy-pyrimidin-5-yl)-1-[6-(3-hydroxy-azetidin-1-yl)-2-methyl-pyridin-3-yl]-3-methyl-1,3-dihydro-imidazo[4,5-c]quinolin-2-one] |
|  | 6.34 | 6.48 | CNC(=O)c1ccc(-c2ccc3ncc4c(c3c2)n(-c2ncccc2C)c(=O)n4C)cc1 [Example 3.5, N-Methyl-4-[3-methyl-1-(3-methyl-pyridin-2-yl)-2-oxo-2,3-dihydro-1H-imidazo[4,5-c]quinolin-8-yl]-benzamide] |
| 8.05 | 7.17 |  | Cc1nc(N2CCC2)ccc1-n1c(=O)n(C)c2cnc3ccc(-c4cncc(N5CCC5)c4)cc3c21 [Example 23.1, 1-(6-Azetidin-1-yl-2-methyl-pyridin-3-yl)-8-(5-azetidin-1-yl-pyridin-3-yl)-3-methyl-1,3-dihydro-imidazo[4,5-c]quinolin-2-one] |
|  | 7.63 | 7.96 | Cc1ncccc1-n1c(=O)n(C)c2cnc3ccc(-c4ccc(C(N)=O)cc4)cc3c21 [Example 2.3, 4-[3-Methyl-1-(2-methyl-pyridin-3-yl)-2-oxo-2,3-dihydro-1H-imidazo[4,5-c]quinolin-8-yl]-benzamide] |
|  | 6.64 | 6.22 | Cc1ncccc1-n1c(=O)n(C)c2cnc3ccc(-c4ccc(OCCCN(C)C)nc4)cc3c21 [Example 2.10, 8-[6-(3-Dimethylamino-propoxy)-pyridin-3-yl]-3-methyl-1-(2-methyl-pyridin-3-yl)-1,3-dihydro-imidazo[4,5-c]quinolin-2-one] |
|  | 7.13 | 6.98 | Cc1ncccc1-n1c(=O)n(C)c2cnc3ccc(-c4ccc(CO)nc4)cc3c21 [Example 2.6, 8-(6-Hydroxymethyl-pyridin-3-yl)-3-methyl-1-(2-methyl-pyridin-3-yl)-1,3-dihydro-imidazo[4,5-c]quinolin-2-one] |
|  | 7.48 |  | CCOc1ccc(-c2ccc3ncc4c(c3c2)n(-c2ccc(N3CCNCC3)nc2OC)c(=O)n4C)cn1 [Example 9.1, 8-(6-Ethoxy-pyridin-3-yl)-1-(2-methoxy-6-piperazin-1-yl-pyridin-3-yl)-3-methyl-1,3-dihydro-imidazo[4,5-c]quinolin-2-one] |
|  | 7.92 | 7.74 | Cc1ncccc1-n1c(=O)n(C)c2cnc3ccc(-c4ccc(N)nc4)cc3c21 [Example 2.7, 8-(6-Amino-pyridin-3-yl)-3-methyl-1-(2-methyl-pyridin-3-yl)-1,3-dihydro-imidazo[4,5-c]quinolin-2-one] |
|  | 6.44 | 6.45 | Cn1c(=O)n(-c2cccnc2)c2c3cc(-c4ccc(CO)nc4)ccc3ncc21 [Example 5.1, 8-(6-Hydroxymethyl-pyridin-3-yl)-3-methyl-1-pyridin-3-yl-1,3-dihydro-imidazo[4,5-c]quinolin-2-one] |
|  | 7.53 | 8.00 | COc1ncccc1-n1c(=O)n(C)c2cnc3ccc(-c4ccc(C(N)=O)cc4)cc3c21 [Example 1.6, 4-[1-(2-Methoxy-pyridin-3-yl)-3-methyl-2-oxo-2,3-dihydro-1H-imidazo[4,5-c]quinolin-8-yl]-benzamide] |
|  | 6.21 | 6.46 | Cc1cccnc1-n1c(=O)n(C)c2cnc3ccc(-c4ccc(C(N)=O)cc4)cc3c21 [Example 3.3, 4-[3-Methyl-1-(3-methyl-pyridin-2-yl)-2-oxo-2,3-dihydro-1H-imidazo[4,5-c]quinolin-8-yl]-benzamide] |
|  | 7.62 |  | COc1nc(N2CCNCC2)ccc1-n1c(=O)n(C)c2cnc3ccc(-c4cnc(N)c(C(F)(F)F)c4)cc3c21 [Example 9.2, 8-(6-Amino-5-trifluoromethyl-pyridin-3-yl)-1-(2-methoxy-6-piperazin-1-yl-pyridin-3-yl)-3-methyl-1,3-dihydro-imidazo[4,5-c]quinolin-2-one] |
